Data taken from patent publication US5710130A, “Antithrombotic agents” (Eli Lilly and Company, priority 1995, dated 1998).
Counter-ions that a name gives are not always drawn.

Key:
Type in all cases: biochemical
human plasma [1] = experiment: Human plasma anticoagulation, thrombin time (TT); settings: concentration required to double thrombin time, linear extrapolation
Experimental: (§1) Dog plasma and rat plasma is obtained from conscious mixed-breed hounds (either sex, Hazelton-LRE, Kalamazoo, Mich., U.S.A.) or from anesthetized male Sprague-Dawley rats (Harlan Sprague-Dawley, Inc., Indianapolis, Ind., U.S.A.) by venipuncture into 3.8 percent citrate. Fibrinogen is prepared from in-date ACD human blood as the fraction I-2 according to previous procedures and specifications. […] Human fibrinogen is also purchased as 98 percent pure/plasmin free from American Diagnostica, Greenwich, Conn. Coagulation reagents ACTIN, Thromboplastin, and Human plasma are from Baxter Healthcare Corp., Dade Division, Miami, Fla. Bovine thrombin from Parke-Davis ([…], Mich.) is used for coagulation assays in plasma.
(§2) Coagulation assay procedures are as previously described. […] A CoAScreener coagulation instrument (American LABor, Inc.) is used for all coagulation assay measurements. The prothrombin time (PT) is measured by adding 0.05 mL saline and 0.05 mL Thromboplastin-C reagent to 0.05 mL test plasma. The activated partial thromboplastin time (APTT) is measured by incubation of 0.05 mL test plasma with 0.05 mL Actin reagent for 120 seconds followed by 0.05 mL CaCl2 (0.02M). The thrombin time (TT) is measured by adding 0.05 mL saline and 0.05 mL thrombin (10 NIH units/mL) to 0.05 mL test plasma. The compounds of Formula I are added to human or animal plasma over a wide range of concentrations to determine prolongation effects on the APTT, PT, and TT assays. Linear extrapolations are performed to estimate the concentrations required to double the clotting time for each assay.

Human Thrombin = Human Thrombin (Homo sapiens, UniProt P00734); experiment: Inhibition of thrombin amidase activity (Kass), chromogenic substrate; settings: mean Kass over a range of concentrations; substrate N-benzoyl-Phe-Val-Arg-p-nitroanilide
human plasma [2] = experiment: Human plasma anticoagulation, prothrombin time (PT); settings: concentration required to double PT, linear extrapolation
Experimental: as §1, §2

human plasma [3] = experiment: Human plasma anticoagulation, activated partial thromboplastin time (APTT); settings: concentration required to double APTT, linear extrapolation
Experimental: as §1, §2

Cl.NC(N)=NC/C=C/CNC(=O)[C@@H]1CCCN1C(=O)[C@H](N)Cc1ccccc1 (relative stereo) [Example 8, D-Phe-Pro-NHCH2 -trans-CH=CHCH2 NHC(NH)NH2.HCl]
Human Plasma Anticoagulation 2x Clotting time TT (human plasma [1]): 130 ng/mL | Kass Human Thrombin (Human Thrombin): 5.3 × 10^6 (L/mole)

Cl.NC[C@H]1CC[C@H](CNC(=O)[C@@H]2CCCN2C(=O)[C@H](N)Cc2ccccc2)CC1 (relative stereo) [Example 12, D-Phe-Pro-NHCH2 -trans-4-(aminomethyl)cyclohexane.HCl]
Human Plasma Anticoagulation 2x Clotting time TT (human plasma [1]): 1,700 ng/mL | Kass Human Thrombin (Human Thrombin): 0.44 × 10^6 (L/mole)

N=C(N)c1ccc(CNC(=O)[C@@H]2C[C@@H]3CCCC[C@@H]3N2C(=O)[C@H]2CCCCN2)cc1 (relative stereo) [Example 20, (S-cis)-N-[[4-(aminoiminomethyl)phenyl]methyl]-octahydro-1-D-homoprolyl-1H-indole-2-carboxamide trihydrochloride]
Human Plasma Anticoagulation 2x Clotting time PT (human plasma [2]): 600 ng/mL

N=C(N)c1ccc(CNC(=O)[C@@H]2C[C@@H]3CCCC[C@@H]3N2C(=O)[C@H]2C[C@H]3CCCC[C@H]3CN2)cc1 (relative stereo) [Example 43, D-3-Piq-cis-Ohi-p-NHCH2 C6 H4 C(NH)NH2.2HCl]
Human Plasma Anticoagulation 2x Clotting time TT (human plasma [1]): 280 ng/mL | Human Plasma Anticoagulation 2x Clotting time PT (human plasma [2]): 930 ng/mL | Human Plasma Anticoagulation 2x Clotting time APTT (human plasma [3]): 1,100 ng/mL

CCS(=O)(=O)N[C@H](Cc1ccccc1)C(=O)N1CCC[C@H]1C(=O)NCc1cccc(C(=N)N)c1 [Example 24, EtSO2 -D-Phe-Pro-m-NHCH2 -C6 H4 C(=NH)NH2.HCl]
Human Plasma Anticoagulation 2x Clotting time TT (human plasma [1]): 1,000 ng/mL | Human Plasma Anticoagulation 2x Clotting time PT (human plasma [2]): 25,000 ng/mL

CCS(=O)(=O)N[C@H](Cc1ccccc1)C(=O)N1CCC[C@H]1C(=O)NCCCc1cccc(C(=N)N)c1 [Example 31, EtSO2 -D-Phe-Pro-m-NHCH2 CH2 CH2 -C6 H4 C(=NH)NH2.HCl]
Human Plasma Anticoagulation 2x Clotting time PT (human plasma [2]): 30,000 ng/mL

CCS(=O)(=O)N[C@H](Cc1ccccc1)C(=O)N1CCC[C@H]1C(=O)NCc1ccc(NC(=N)N)cc1 [Example 34, EtSO2 -D-Phe-Pro-p-NHCH2 C6 H4 NHC(NH)NH2.HCl]
Human Plasma Anticoagulation 2x Clotting time TT (human plasma [1]): 530 ng/mL | Human Plasma Anticoagulation 2x Clotting time PT (human plasma [2]): 5,500 ng/mL | Human Plasma Anticoagulation 2x Clotting time APTT (human plasma [3]): 4,900 ng/mL

CCS(=O)(=O)N[C@H](Cc1ccccc1)C(=O)N1CCC[C@H]1C(=O)NCCc1ccc(NC(=N)N)cc1 [Example 35, EtSO2 -D-Phe-Pro-p-NHCH2 CH2 C6 H4 NHC(NH)NH2.HCl]
Human Plasma Anticoagulation 2x Clotting time TT (human plasma [1]): 4,500 ng/mL | Human Plasma Anticoagulation 2x Clotting time PT (human plasma [2]): 78,400 ng/mL | Human Plasma Anticoagulation 2x Clotting time APTT (human plasma [3]): 50,400 ng/mL

CCS(=O)(=O)N[C@H](Cc1ccccc1)C(=O)N1CCC[C@H]1C(=O)NCc1cccc(NC(=N)N)c1 [Example 36, EtSO2 -D-Phe-Pro-m-NHCH2 C6 H4 NHC(NH)NH2.HCl]
Human Plasma Anticoagulation 2x Clotting time TT (human plasma [1]): 7,700 ng/mL | Human Plasma Anticoagulation 2x Clotting time PT (human plasma [2]): > 91,000 ng/mL | Human Plasma Anticoagulation 2x Clotting time APTT (human plasma [3]): > 91,000 ng/mL

N=C(N)Nc1cccc(CNC(=O)[C@@H]2CCCN2C(=O)[C@@H]2NCC[C@@H]3CCCC[C@@H]32)c1 [Example 40, D-1-Piq-Pro-m-NHCH2 C6 H4 NHC(NH)NH2.2HCl]
Human Plasma Anticoagulation 2x Clotting time PT (human plasma [2]): > 91,000 ng/mL | Human Plasma Anticoagulation 2x Clotting time APTT (human plasma [3]): > 91,000 ng/mL

N=C(N)Nc1cccc(CCNC(=O)[C@@H]2CCCN2C(=O)[C@@H]2NCC[C@@H]3CCCC[C@@H]32)c1 [Example 41, D-1-Piq-Pro-m-NHCH2 CH2 C6 H4 NHC(NH)NH2.2HCl]
Human Plasma Anticoagulation 2x Clotting time PT (human plasma [2]): > 91,000 ng/mL | Human Plasma Anticoagulation 2x Clotting time APTT (human plasma [3]): > 91,000 ng/mL

N=C(N)c1ccc(CNC(=O)[C@@H]2CCCN2C(=O)[C@@H](CC2CCCCC2)NCC(=O)O)cc1 [Example 48, N-(carboxymethyl)-D-cyclohexylalanyl-N-[[4-(aminoiminomethyl)phenyl]methyl]-L-prolinamide]
Human Plasma Anticoagulation 2x Clotting time TT (human plasma [1]): 2 ng/mL | Human Plasma Anticoagulation 2x Clotting time PT (human plasma [2]): 59 ng/mL | Human Plasma Anticoagulation 2x Clotting time APTT (human plasma [3]): 33 ng/mL

N=C(N)c1ccc(CNC(=O)[C@@H]2CCCN2C(=O)[C@H](N)CC2CCCCC2)cc1 [Example 51, D-cyclohexylalanyl-N-[[4-(aminoiminomethyl)phenyl]methyl]-L-prolinamide di-hydrochloride]
Human Plasma Anticoagulation 2x Clotting time TT (human plasma [1]): 2 ng/mL | Human Plasma Anticoagulation 2x Clotting time PT (human plasma [2]): 110 ng/mL | Human Plasma Anticoagulation 2x Clotting time APTT (human plasma [3]): 48 ng/mL

N=C(N)c1ccc(CNC(=O)[C@@H]2CCCN2C(=O)[C@@H](CC2CCCCC2)NCCC(=O)O)cc1 [Example 52, N-(2-carboxyethyl)-D-cyclohexylalanyl-N-[[4-(aminoiminomethyl)phenyl]methyl]-L-prolinamide hydrochloride]
Human Plasma Anticoagulation 2x Clotting time TT (human plasma [1]): 6 ng/mL | Human Plasma Anticoagulation 2x Clotting time PT (human plasma [2]): 170 ng/mL | Human Plasma Anticoagulation 2x Clotting time APTT (human plasma [3]): 80 ng/mL

O=C(O)CN[C@H](CC1CCCCC1)C(=O)N1CCC[C@H]1C(=O)NCCCC1CCNCC1 [Example 55, HO2 CCH2 -D-Cha-Pro-4-NHCH2 CH2 CH2 -piperidine.HCl]
Human Plasma Anticoagulation 2x Clotting time PT (human plasma [2]): > 91,000 ng/mL | Human Plasma Anticoagulation 2x Clotting time APTT (human plasma [3]): > 91,000 ng/mL

N=C(N)N1CCC(CNC(=O)[C@@H]2CCCN2C(=O)[C@@H](CC2CCCCC2)NCC(=O)O)CC1 [Example 56, N-(carboxymethyl)-D-cyclohexylalanyl-N-[[1-(aminoiminomethyl)-hexahydropyridin-4-yl-]methyl]-L-prodimamide hydrochloride]
Human Plasma Anticoagulation 2x Clotting time TT (human plasma [1]): 5 ng/mL | Human Plasma Anticoagulation 2x Clotting time PT (human plasma [2]): 200 ng/mL | Human Plasma Anticoagulation 2x Clotting time APTT (human plasma [3]): 160 ng/mL

N=C(N)N1CC=C(CNC(=O)[C@@H]2CCCN2C(=O)[C@@H](CC2CCCCC2)NCC(=O)O)CC1 [Example 70, N-(carboxymethyl)-D-cyclohexylalanyl-N-[[1-(aminoiminomethyl)-1,2,3,6-tetrahydropyridin-4-yl]methyl]-L-prolinamide hydrochloride]
Human Plasma Anticoagulation 2x Clotting time TT (human plasma [1]): 2 ng/mL | Human Plasma Anticoagulation 2x Clotting time PT (human plasma [2]): 180 ng/mL | Human Plasma Anticoagulation 2x Clotting time APTT (human plasma [3]): 160 ng/mL

Cl.Nc1ccc(CCNC(=O)[C@@H]2CCCN2C(=O)[C@@H](CC2CCCCC2)NCC(=O)O)cn1 [Example 75, HO2 CCH2 -D-Cha-Pro-5-NHCH2 CH2 -2-aminopyridine.HCl]
Kass Human Thrombin (Human Thrombin): 0.45 × 10^6 (L/mole)

NCC1CCC(CNC(=O)[C@@H]2CCCN2C(=O)[C@@H](CC2CCCCC2)NCC(=O)O)CC1 (stereo partly drawn) [Example 79, HO2 CCH2 -D-Cha-Pro-4-NHCH2 C6 H10 CH2 NH2.HCl]
Human Plasma Anticoagulation 2x Clotting time TT (human plasma [1]): 140 ng/mL | Human Plasma Anticoagulation 2x Clotting time PT (human plasma [2]): 2,400 ng/mL | Human Plasma Anticoagulation 2x Clotting time APTT (human plasma [3]): 1,700 ng/mL

CCS(=O)(=O)N[C@H](CC1CCCCC1)C(=O)N1CCC[C@H]1C(=O)NCc1ccc(CN)cc1 [Example 81, EtSO2 -D-Cha-Pro-4-NHCH2 C6 H4 CH2 NH2.HCl]
Human Plasma Anticoagulation 2x Clotting time TT (human plasma [1]): 110 ng/mL | Human Plasma Anticoagulation 2x Clotting time PT (human plasma [2]): 2,700 ng/mL | Human Plasma Anticoagulation 2x Clotting time APTT (human plasma [3]): 1,500 ng/mL

N=C(N)c1ccc(CNC(=O)[C@@H]2CCCN2C(=O)[C@@H](CC2CCCCC2)NCCCC(=O)O)cc1 [Example 85, N-(3-carboxypropyl)-D-cyclohexylalanyl-N-[[4-(aminoiminomethyl)phenyl]methyl]-L-prolinamide hydrochloride]
Human Plasma Anticoagulation 2x Clotting time TT (human plasma [1]): 4.9 ng/mL | Human Plasma Anticoagulation 2x Clotting time APTT (human plasma [3]): 100 ng/mL

N=C(N)c1ccc(CNC(=O)[C@@H]2CCCN2C(=O)[C@@H](CCC2CCCCC2)NCC(=O)O)cc1 [Example 88, hydrochloride]
Human Plasma Anticoagulation 2x Clotting time TT (human plasma [1]): 4 ng/mL | Human Plasma Anticoagulation 2x Clotting time PT (human plasma [2]): 200 ng/mL | Human Plasma Anticoagulation 2x Clotting time APTT (human plasma [3]): 100 ng/mL

CCC(CC)C(=O)N[C@@H](CCS(C)(=O)=O)C(=O)N1CCC[C@H]1C(=O)NCc1ccc(C(=N)N)cc1 [Example 91, (C2 H5)2 CHCO-Met(O2)-Pro-p-NHCH2 C6 H4 C(NH)NH2.HCl]
Human Plasma Anticoagulation 2x Clotting time TT (human plasma [1]): 63 ng/mL | Human Plasma Anticoagulation 2x Clotting time PT (human plasma [2]): 3,500 ng/mL | Human Plasma Anticoagulation 2x Clotting time APTT (human plasma [3]): 3,000 ng/mL

CS(=O)(=O)CC(=O)N[C@H](CC1CCCCC1)C(=O)N1CCC[C@H]1C(=O)NCc1ccc(C(=N)N)cc1 [Example 92, (N-methylsulfonylacetyl)-L-cyclohexylalanyl-N-[[4-(aminoiminomethyl)phenyl]methyl]-L-prolinamide hydrochloride]
Human Plasma Anticoagulation 2x Clotting time TT (human plasma [1]): 8.9 ng/mL | Human Plasma Anticoagulation 2x Clotting time PT (human plasma [2]): 340 ng/mL | Human Plasma Anticoagulation 2x Clotting time APTT (human plasma [3]): 210 ng/mL

(S-cis)-N-[[4-(amino iminomethyl)phenyl]methyl]-1-[N-(ethylsulfonyl)-D-phenylglycyl]-1H-indole- 2-carboxamide hydrochloride [Example 44]
Human Plasma Anticoagulation 2x Clotting time TT (human plasma [1]): 4 ng/mL | Human Plasma Anticoagulation 2x Clotting time PT (human plasma [2]): 170 ng/mL | Human Plasma Anticoagulation 2x Clotting time APTT (human plasma [3]): 100 ng/mL
